According to patent publication US20180140609A1, “USE OF (4-HYDROXY-2-METHYL-1,1-DIOXIDO-2H-BENZO[E][1,2]THIAZINE-3-YL)(NAPHTHALENE-2-YL) METHANONE IN THE PREVENTION AND/OR TREATMENT OF NON-ALCOHOLIC STEATOHEPATITIS” (PIERRE FABRE MEDICAMENT, priority 2015, published 2018):
Read-outs that look alike come from different tables or passages of the source.

Columns and labels:
[1] = Plasma and tissue levels after single oral administration in cynomolgus monkeys (LC-MS/MS); assay type: in vivo; details: male, cynomolgus monkey, 20 mg/kg oral
Experimental: Five adult male cynomolgus monkeys (same animals used in studies 1 and 2 of Example 4) are fasted the evening before the experiment. Blood samples are taken right before administration of Compound 1K (dose of 20 mg/kg, n=3) or administration of the vehicle (0.5% methylcellulose in water, n=2) then 4 hours after oral administration. The animals are euthanized, necropsy is performed on the monkeys, samples of plasma and of target tissues are taken and then frozen in liquid nitrogen and stored at −70° C. until ex vivo analyses. To test the ex vivo activity of 11β-HSD type 1, 5-10 mg liver samples were incubated in duplicate for 30 minutes at 37° C. with 17 nM [1,2-^3H] cortisone in 50 mM HEPES (pH 7.4), 100 mM KCl, 5 mM NaCl, 2 mM MgCl2. Plasma levels were measured by the LC-MS/MS analytical method. The liver samples were homogenized by sonication and extracted with acetonitrile (1 ml of distilled water, 4 ml of acetonitrile for 200 mg of tissue). Tissue levels of the compounds were measured by the LC-MS/MS analytical method.
The protocol is the same as that described in Example 5, except that the tissue samples are from mesenteric, subcutaneous and inguinal adipose tissue.

[2] = test system: 11β-HSD type 1; assay: Inhibition of conversion of prednisone to prednisolone after single administration to cynomolgus monkeys; assay type: in vivo
Experimental: The protocol used is described by Bhat et al. (J. Pharmacol. Exp. Ther. 324, 299-305, 2008).
Briefly, the study is carried out in naive adult male cynomolgus monkeys fasted overnight. The 11β-HSD type 1 inhibitor or its vehicle (0.5% methylcellulose in water) is administered via nasogastric intubation. Two hours later, a challenge with orally administered prednisone (10 mg/kg) is performed and blood samples are taken regularly for 24 hours. These samples are centrifuged to obtain plasma and immediately frozen at −70° C. until bioanalysis. Plasma levels of prednisone, prednisolone and 11β-HSD type 1 inhibitors are measured by LC-MS/MS analytical methods.
The study is carried out over a period of 10 weeks. Profiles of plasma concentration as a function of time and areas under the curve are calculated using the trapezoidal method for all parameters.
The effect of Compound 1 is evaluated at three doses: 1.25, 5 and 20 mg/kg.
The effect of Compound 1K is evaluated at three doses: 20, 40 and 80 mg/kg. The protocol is quite similar to the preceding, except that only 5 blood samples were taken per monkey rather than 7. Compound 1K was also evaluated over a period of 10 weeks.
The 11β-HSD type 1 activity-dependent conversion of prednisone to prednisolone was evaluated. Compound 2K inhibits roughly 50% this activity at a dose of 20 mg/kg (FIG. 2A). FIG. 2 represents the effects of Compound 2K, at the three doses tested, on plasma prednisolone/prednisone ratio calculated with the area under the curve between 30 minutes and 4 hours (panel A) and on plasma exposure during the 6-hour experimental period (panel B); the results obtained with Compound 1K at a dose of 5 mg/kg are compared in the two panels.

CN1C(C(=O)c2ccc3ccccc3c2)=C([O-])c2ccccc2S1(=O)=O.[K+] [Compound 1K, potassium 3-(2-naphthoyl)-2-methyl-2H-benzo[e][1,2]thiazin-4-olate 1,1-dioxide]
concentration at 4 h ([1]; liver, read-out: mean hepatic levels (in relative value)): 13600 ± 3700 ng/g
concentration at 4 h ([1]; inguinal adipose tissue, read-out: tissue levels (in relative value), inguinal adipose tissue): 6100 ± 1500 ng/g
concentration at 4 h ([1]; mesenteric adipose tissue, read-out: tissue levels (in relative value), mesenteric adipose tissue): 6600 ± 400 ng/g
concentration at 4 h ([1]; plasma, ± SEM, n=3, read-out: mean plasma levels): 17000 ± 3580 ng/mL
concentration at 4 h ([1]; subcutaneous adipose tissue, read-out: tissue levels (in relative value), subcutaneous adipose tissue): 1300 ± 100 ng/g
inhibition of plasma prednisolone/prednisone ratio of AUC (30 minutes to 4 hours) ([2]; 20 mg/kg, prednisone 10 mg/kg 2 h later): 81%
inhibition of conversion of prednisone to prednisolone (prednisolone/prednisone AUC ratio) ([2]; 40 mg/kg): 79%
inhibition of conversion of prednisone to prednisolone (prednisolone/prednisone AUC ratio) ([2]; 80 mg/kg): 89%
"maximum" inhibition of plasma prednisolone/prednisone ratio of AUC (30 minutes to 4 hours) ([2]; all the doses tested (20, 40 and 80 mg/kg), 5 animals per group): at least 80%
